Measurements taken from US12427209B2, “Dual mode 18F-labelled theranostic compounds and uses thereof” (Provincial Health Services Authority, priority 2018, dated 2025).

Key:
[1] = highly dilute conditions (~5 mM), pH 7.5, in vitro (ref. 19); cited from earlier work
[2] = target: T1, VLA-4 expressing B16-F10 cells (Mus musculus, UniProt P09055+Q00651); assay: In vitro saturation binding assay on B16-F10 cells
T1 construct: endogenous in cells; host or cells: B16-F10 murine melanoma cells
Experimental: Saturation binding assay. In vitro binding saturation assays were performed on B16-F10 cells following published procedures (n=3).(28) Cells were grown to near-confluence on 24 well poly-D-lysine plates. Growth media was removed, and reaction media (RPMI, 1% BSA, 100 U/mL penicillin/streptomycin) was added and allowed to incubate for at least 1 h at 37° C. Increasing concentrations (5 pM to 20 nM) of [^18F]6 were added to the cells and incubated for 1 h at 25° C. with mild agitation. Non-specific binding was determined by repeating the described incubations with [^18F]6 while simultaneously adding 1 (10 μM). After incubation, cells were washed twice with ice-cold PBS, harvested following incubation with trypsin, and measured for radioactivity using a WIZARD 2480 gamma counter (PerkinElmer). Values from the non-specific binding assays were subtracted from the respective values of the specific binding assays. Dissociation constants (Kd'S) were determined using GraphPad PRISM 7 with a one-site specific binding model.

[3] = tested on: B16-F10 tumor-bearing mice; parameters: species or system mice (male C57BL/6J); settings: mouse, in vivo
Experimental: PET/CT imaging studies were carried out on a microPET/CT scanner (Inveon, Siemens). Briefly, for static PET scans, each tumor bearing mouse was injected with 4-6 MBq of F-18 labeled […]3-DOTA via the caudal lateral tail vein under isoflurane sedation. For blocking study, mice were co-injected with 100 μg of non-radioactive […]3-DOTA. After injection, the mice were allowed to recover and roam freely in their cages. After 50 min, the mice were sedated again and positioned in the scanner. A baseline CT scan was obtained for localization and attenuation correction. This was followed by a 10 min static PET scan. The mice were kept warm by a heating pad during acquisition. The mice were euthanized using CO2 inhalation after static PET imaging followed by biodistribution. The PET images were reconstructed using the ordered subset expectation maximization and maximum a posteriori algorithm (OSEM3D/MAP), using 2 OSEM3D iterations followed by 18 MAP iterations, with a requested resolution of 1.5 mm. […] For static PET scans (recorded for 10 min), mice were first injected with 4-6 MBq of ([^18F]6) via the tail vein while anesthetized with 2% isoflurane and were subjected to baseline CT scans (recorded for 10 min) prior to PET imaging. […] Dynamic PET scans involved the described anesthesia, injection of 4-6 MBq of [^18F]6, baseline CT scans, and PET scans recorded from 5 sec. to 52.5 min p.i. […]

[4] = tested on: B16-F10 tumor-bearing mice; format: in vivo, mice (male C57BL/6J); parameters: Reduction of accumulation in the spleen by co-injection of 1 / Reduction of accumulation in the intestines by co-injection of 1 / Reduction of accumulation in the lungs by co-injection of 1 / Reduction of accumulation in bone & marrow by co-injection of 1 / Reduction of accumulation in the tumor by co-injection of 1: concentration or dose not given beside the values
Experimental: All animal experiments were conducted according to the guidelines established by Canadian Council on Animal Care and approved by Animal Ethics Committee of the University of British Columbia. Mice were housed under pathogen-free conditions and kept on twelve-hour light and dark cycles in the Animal Resource Centre of BC Cancer Research Centre, Vancouver, Canada. PET imaging and biodistribution studies were performed using male C57BL/6J mice. For tumor implantation, mice were anesthetized by inhalation with 2% isoflurane in 2.0 L/min of oxygen, and 1×10^6 B16F10 cells were implanted subcutaneously on the right back at the level of the forelimbs. Mice were imaged or used in biodistribution studies once the tumor grew to reach 8-10 mm in diameter in 8-10 days. Mice for biodistribution study only were anesthetized by 2% isoflurane inhalation, and injected with 1-2 MBq of F-18 labeled […]3-DOTA. For blocking studies, 100 μg of non-radioactive […]3-DOTA was co-injected with the radioactive compound. After injection, the mice were allowed to recover and roam freely in their cages, and euthanized by CO2 inhalation 1 h later. Blood was promptly withdrawn, and the organs of interest were harvested, rinsed with 1×PBS (pH 7.4), and blotted dry. Each organ was weighed and the radioactivity of the collected tissue was measured using a WIZARD 2480 (PerkinElmer), normalized to the injected dose using a standard curve and expressed as the percentage of the injected dose per gram of tissue (% ID/g). Biodistribution of DOTA-[^18[…]]6) in B16-F10 tumor-bearing mice. Mice were anesthetized using 2% isoflurane and injected with 2-3 MBq of [^18F]6 via the tail vein. For competitive VLA-4 blocking studies, 200 μg of 1 was co-injected with 2-3 MBq of [^18F]6. At 1 h p.i., mice were euthanized by CO2 (g) inhalation, blood was collected, and the organs were excised. After rinsing and drying the samples, organs were weighed, their radioactivity was recorded using a Wallac WIZARD2 gamma counter (PerkinElmer), and values were expressed as % ID/g for each organ. Two-tailed ANOVA Sidak's multiple comparison tests (GraphPad PRISM) were used to evaluate statistical significance between the biodistribution of [^18F]6 alone compared with competitive blocking of VLA-4 by co-injections of 1.

[5] = tested on: mice bearing PSMA-expressing LNCaP prostate cancer xenografts; parameters: species or system mice (NODSCID 1L2RγKO male); settings: mouse, in vivo
Experimental: Imaging and biodistribution experiments were performed using NODSCID 1L2RγKO male mice. The mice were maintained and the experiments were conducted in according to the guidelines established by Canadian Council on Animal Care and approved by Animal Ethics Committee of the University of British Columbia. Mice were anesthetized by inhalation with 2% isoflurane in oxygen, and implanted subcutaneously with 1×10^7 LNCaP cells behind left shoulder. Mice were imaged or used in biodistribution studies when the tumor grew up to reach 5-8 mm in diameter during 5-6 weeks. For biodistribution studies, the mice were injected with the radiotracer as described above. For blocking, the mice were co-injected with non-radioactive DCFPyL (0.5 mg). After 1 hour, the mice were anesthetized with 2% isoflurane inhalation, and euthanized by CO2 inhalation. Blood was withdrawn immediately from the heart, and the organs/tissues of interest were collected. The collected organs/tissues were weighed and counted using an automatic gamma counter. The uptake in each organ/tissue was normalized to the injected dose using a standard curve, and expressed as % ID/g.

T1 sequence (Q00651 41-1039): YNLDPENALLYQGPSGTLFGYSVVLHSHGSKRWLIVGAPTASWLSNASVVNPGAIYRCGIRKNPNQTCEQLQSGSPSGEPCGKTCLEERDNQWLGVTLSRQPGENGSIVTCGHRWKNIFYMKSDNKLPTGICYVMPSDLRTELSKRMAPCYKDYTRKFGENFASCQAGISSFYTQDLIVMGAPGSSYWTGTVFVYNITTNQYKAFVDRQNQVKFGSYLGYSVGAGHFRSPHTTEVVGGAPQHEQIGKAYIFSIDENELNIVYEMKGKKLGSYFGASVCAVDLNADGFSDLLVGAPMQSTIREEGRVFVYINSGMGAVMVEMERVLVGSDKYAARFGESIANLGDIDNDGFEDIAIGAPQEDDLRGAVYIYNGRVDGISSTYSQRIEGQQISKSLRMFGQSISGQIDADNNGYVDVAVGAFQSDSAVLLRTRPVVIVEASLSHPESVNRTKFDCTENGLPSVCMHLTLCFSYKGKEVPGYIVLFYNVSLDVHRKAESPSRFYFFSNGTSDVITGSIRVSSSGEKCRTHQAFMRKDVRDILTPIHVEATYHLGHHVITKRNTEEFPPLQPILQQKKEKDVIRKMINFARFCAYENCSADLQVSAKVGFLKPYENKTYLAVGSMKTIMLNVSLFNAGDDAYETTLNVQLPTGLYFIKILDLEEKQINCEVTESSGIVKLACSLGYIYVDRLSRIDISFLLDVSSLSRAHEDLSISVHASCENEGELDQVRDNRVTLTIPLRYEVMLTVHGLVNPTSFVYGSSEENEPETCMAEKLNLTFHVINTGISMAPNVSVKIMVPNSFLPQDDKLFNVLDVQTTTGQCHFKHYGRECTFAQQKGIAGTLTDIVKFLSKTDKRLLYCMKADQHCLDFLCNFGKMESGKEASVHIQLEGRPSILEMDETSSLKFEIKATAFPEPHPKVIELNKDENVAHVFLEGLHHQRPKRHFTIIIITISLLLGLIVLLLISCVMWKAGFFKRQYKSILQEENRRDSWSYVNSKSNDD
T1 sequence (P09055 21-798): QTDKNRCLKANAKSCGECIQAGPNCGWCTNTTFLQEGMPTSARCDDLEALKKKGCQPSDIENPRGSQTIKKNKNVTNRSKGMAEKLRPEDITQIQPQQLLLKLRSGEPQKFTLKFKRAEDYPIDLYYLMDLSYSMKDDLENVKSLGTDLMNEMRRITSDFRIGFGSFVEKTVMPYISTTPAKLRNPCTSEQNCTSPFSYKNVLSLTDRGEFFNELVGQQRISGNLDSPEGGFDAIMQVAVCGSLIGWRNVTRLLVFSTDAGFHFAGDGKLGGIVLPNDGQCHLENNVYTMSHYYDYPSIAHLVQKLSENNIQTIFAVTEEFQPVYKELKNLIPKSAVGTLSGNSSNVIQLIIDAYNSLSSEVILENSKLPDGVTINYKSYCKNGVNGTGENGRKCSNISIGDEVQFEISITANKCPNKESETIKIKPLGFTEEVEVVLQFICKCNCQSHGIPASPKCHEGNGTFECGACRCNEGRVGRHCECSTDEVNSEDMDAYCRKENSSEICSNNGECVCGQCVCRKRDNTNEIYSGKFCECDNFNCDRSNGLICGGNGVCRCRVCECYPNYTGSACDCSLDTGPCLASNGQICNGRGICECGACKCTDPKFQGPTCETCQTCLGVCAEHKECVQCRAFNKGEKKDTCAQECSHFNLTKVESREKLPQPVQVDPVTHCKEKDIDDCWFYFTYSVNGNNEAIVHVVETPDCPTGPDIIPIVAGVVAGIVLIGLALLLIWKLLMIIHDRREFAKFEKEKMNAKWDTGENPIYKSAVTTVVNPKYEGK

For C#CC[N+](C)(C)C[B-](F)(F)F [compound 7, N-propargyl-N,N-dimethyl-ammoniomethyl-trifluoroborate], the “Loss of free fluoride (hydrolytic stability)” value [1] is listed as “very slow, first order rate”.
In the case of DOTA-AMBF3-PEG2-LLP2A [compound 6], the “Kd relative to Kd values of other [^18F]RBF3-PEG2-LLP2A conjugates (fold higher)” value ([2]; comparison with earlier conjugates) is reported as “at least 5 fold” and the Kd ([2]; saturation binding of [^18F]6, B16-F10 cells, 1 h at 25° C., n=3) is reported as 6.9 ± 0.59 nM.
In the case of DOTA-[^18F]AMBF3-PEG2-LLP2A [[^18F]6], the “Time of initial perfusion and first pass through the liver (dynamic PET)” value [3] is reported as ≤ 4 min p.i, the “Time to uptake in the tumor (dynamic PET)” value [3] is reported as ≤ 1.9 min p.i and the “Lowering of tumor-to-blood contrast by VLA-4 blocking” value ([4]; 1 h p.i., p<0.0001) is reported as 85%. The “Lowering of tumor-to-muscle contrast by VLA-4 blocking” value ([4]; 1 h p.i., p<0.0001) was 92%, the “Reduction of accumulation in bone & marrow by co-injection of 1” value ([4]; 1 h p.i., p<0.0001) was 78% and the “Reduction of accumulation in the lungs by co-injection of 1” value ([4]; 1 h p.i., p<0.0001) was 85%. For the same molecule, the “Reduction of accumulation in the spleen by co-injection of 1” value ([4]; 1 h p.i., p<0.0001) was 88%, the “Reduction of accumulation in the tumor by co-injection of 1” value ([4]; 1 h p.i., p<0.0001) was 75% and the “Reduction of accumulation in the intestines by co-injection of 1” value ([4]; 1 h p.i., p<0.05) was 43%. For the same molecule, the “Reduction of accumulation in the intestines compared to previously investigated [^18F]RBF3-PEG2-LLP2A's” value ([4]; mouse, in vivo) was ~10 fold, the “Tumor-to-tissue ratio Tumor: Bone & Marrow” value ([4]; mouse, in vivo) was 1.98 ± 0.78 and the “Tumor-to-tissue ratio Tumor: Kidney” value ([4]; mouse, in vivo) was 2.22 ± 0.60.
“^18F-PSMA-617-LysAMBF3-DOTA [F-18 labeled PSMA-617-Lys-AMBF3-DOTA]” showed a Tumor/Blood baseline [5] of 14.19 ± 3.85, a Tumor/Kidney baseline [5] of 0.09 ± 0.03 and a Tumor/Muscle baseline [5] of 41.55 ± 10.83.
